# Assays:
# [1] = Toxicity in anti-CD40 induced immunodeficient Rag1 KO colitis mouse model assessed as body weight loss at 10 to 30 mg/kg, po bid administered for 6 days; format: organism-based; settings: in vivo, 144 h, dose 10-30 mg/kg, time 6 day
# [2] = target: Non-receptor tyrosine-protein kinase TYK2 (Homo sapiens, UniProt P29597); assay: Inhibition of TYK2 dependent IFNalpha-stimulated STAT3 phosphorylation in human Jurkat cells; format: cell-based
# [3] = Stability in human liver microsomes assessed as parent compound remaining measured after 60 mins; format: ADME, Microsome; settings: read-out: Stability
# [4] = Stability in mouse liver microsomes assessed as parent compound remaining measured after 60 mins; format: ADME, Microsome; settings: read-out: Stability
# [5] = target: Tyrosine-protein kinase JAK2 (Homo sapiens, UniProt O60674); assay: Inhibition of JAK2 dependent GM-CSF stimulated STAT3 phosphorylation in human TF-1 cells; format: cell-based
# JAK3/JAK1 = JAK3/JAK1 (Homo sapiens, UniProt P23458+P52333); assay: Inhibition of JAK1/3 dependent IL-2 stimulated STAT5 phosphorylation in CD3-positive T cells (unknown origin); format: cell-based, CD3-positive T cell
# [6] = Tmax in mouse at 30 mg/kg, IG; format: ADME, organism-based; settings: in vivo, po
# [7] = C0 in mouse at 1 mg/kg, iv; format: ADME, organism-based; settings: in vivo
# [8] = Cmax in mouse at 30 mg/kg, IG; format: ADME, organism-based; design: dose 30 mg/kg, route ig; settings: in vivo, po
# [9] = Volume of distribution in mouse at 1 mg/kg, iv; format: ADME, organism-based; settings: in vivo
# [10] = AUC(0 to infinity) in mouse at 30 mg/kg, IG; format: ADME, organism-based; design: dose 30 mg/kg, route ig; settings: in vivo, po
# [11] = AUC(0 to infinity) in mouse at 1 mg/kg, iv; format: ADME, organism-based; design: dose 1 mg/kg, route iv; settings: in vivo
# [12] = Clearance in mouse at 1 mg/kg, iv; format: ADME, organism-based; settings: in vivo
# [13] = Half life in mouse at 30 mg/kg, IG; format: ADME, organism-based; settings: in vivo, po
# [14] = Half life in mouse at 1 mg/kg, iv; format: ADME, organism-based; settings: in vivo
# [15] = MRT (0 to t) in mouse at 30 mg/kg, IG; format: ADME, organism-based; settings: in vivo, po
# [16] = MRT (0 to t) in mouse at 1 mg/kg, iv; format: ADME, organism-based; settings: in vivo
# [17] = Bioavailability in mouse at 30 mg/kg, IG; format: ADME, organism-based; settings: in vivo, po
# hERG (KCNH2) = hERG (KCNH2) (Homo sapiens, UniProt Q12809); assay: Inhibition of human ERG at 10 uM by patch clamp method relative to control; format: toxicity
# CYP1A2 = target: T1, CYP1A2 (Homo sapiens, UniProt P05177); assay: Inhibition of CYP1A2 (unknown origin) at 1 uM relative to control; format: ADME
# T1 sequence (P05177 whole entry): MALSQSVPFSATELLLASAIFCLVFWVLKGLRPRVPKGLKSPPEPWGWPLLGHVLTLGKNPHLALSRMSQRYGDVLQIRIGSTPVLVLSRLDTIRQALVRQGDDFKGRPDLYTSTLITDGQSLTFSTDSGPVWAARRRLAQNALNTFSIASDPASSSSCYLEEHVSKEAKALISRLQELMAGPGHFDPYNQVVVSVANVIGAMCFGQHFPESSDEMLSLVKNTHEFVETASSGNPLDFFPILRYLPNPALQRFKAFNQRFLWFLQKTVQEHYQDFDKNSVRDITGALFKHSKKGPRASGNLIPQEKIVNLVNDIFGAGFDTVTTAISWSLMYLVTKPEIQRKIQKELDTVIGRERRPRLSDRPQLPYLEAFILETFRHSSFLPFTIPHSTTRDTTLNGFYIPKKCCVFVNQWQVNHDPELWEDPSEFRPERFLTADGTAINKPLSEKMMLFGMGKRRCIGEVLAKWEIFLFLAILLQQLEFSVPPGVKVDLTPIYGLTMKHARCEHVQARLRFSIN
# CYP2B6 = target: T2, CYP2B6 (Homo sapiens, UniProt P20813); assay: Inhibition of CYP2B6 (unknown origin) at 1 uM relative to control; format: ADME
# T2 sequence (P20813 whole entry): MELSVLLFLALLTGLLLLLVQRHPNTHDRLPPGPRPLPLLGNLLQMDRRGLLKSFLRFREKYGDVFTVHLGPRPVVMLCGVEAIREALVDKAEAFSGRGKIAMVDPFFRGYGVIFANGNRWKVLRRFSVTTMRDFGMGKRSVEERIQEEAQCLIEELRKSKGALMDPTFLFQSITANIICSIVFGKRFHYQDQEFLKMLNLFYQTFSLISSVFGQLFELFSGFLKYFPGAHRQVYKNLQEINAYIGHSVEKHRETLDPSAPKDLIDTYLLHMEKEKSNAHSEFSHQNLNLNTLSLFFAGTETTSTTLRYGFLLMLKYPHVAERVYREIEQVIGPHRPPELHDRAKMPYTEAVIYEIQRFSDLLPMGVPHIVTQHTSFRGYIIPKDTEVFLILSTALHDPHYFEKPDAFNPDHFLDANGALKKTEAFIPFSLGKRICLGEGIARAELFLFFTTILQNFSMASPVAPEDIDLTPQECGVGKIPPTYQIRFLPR
# CYP2C9 = CYP2C9 (Homo sapiens, UniProt P11712); assay: Inhibition of CYP2C9 (unknown origin) at 1 uM relative to control; format: ADME
# CYP2C19 = CYP2C19 (Homo sapiens, UniProt P33261); assay: Inhibition of CYP2C19 (unknown origin) at 1 uM relative to control; format: ADME
# CYP2D6 = CYP2D6 (Homo sapiens, UniProt P10635); assay: Inhibition of CYP2D6 (unknown origin) at 1 uM relative to control; format: ADME
# CYP3A4 = CYP3A4 (Homo sapiens, UniProt P08684); assay: Inhibition of CYP3A4 (unknown origin) at 1 uM relative to control; format: ADME
# [18] = Plasma protein binding in anti-CD40 induced immunodeficient Rag1 KO colitis mouse model; format: ADME, cell-free; settings: read-out: PPB (converted)
# Chain of CYP3A4 (P08684 whole entry): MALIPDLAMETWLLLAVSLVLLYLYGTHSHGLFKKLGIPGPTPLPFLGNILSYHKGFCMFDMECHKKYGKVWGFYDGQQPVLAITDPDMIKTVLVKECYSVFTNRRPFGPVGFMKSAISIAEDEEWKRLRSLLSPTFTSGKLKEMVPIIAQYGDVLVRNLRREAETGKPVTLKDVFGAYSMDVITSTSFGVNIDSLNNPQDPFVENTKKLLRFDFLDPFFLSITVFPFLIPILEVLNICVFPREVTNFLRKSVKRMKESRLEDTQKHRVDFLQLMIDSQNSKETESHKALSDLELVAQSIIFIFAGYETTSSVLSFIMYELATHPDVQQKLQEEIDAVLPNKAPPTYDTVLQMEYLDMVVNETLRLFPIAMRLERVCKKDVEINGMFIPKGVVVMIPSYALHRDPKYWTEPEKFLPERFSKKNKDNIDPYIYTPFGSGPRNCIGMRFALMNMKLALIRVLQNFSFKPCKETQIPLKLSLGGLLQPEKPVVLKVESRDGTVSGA
# Chain of Non-receptor tyrosine-protein kinase TYK2 (P29597 whole entry): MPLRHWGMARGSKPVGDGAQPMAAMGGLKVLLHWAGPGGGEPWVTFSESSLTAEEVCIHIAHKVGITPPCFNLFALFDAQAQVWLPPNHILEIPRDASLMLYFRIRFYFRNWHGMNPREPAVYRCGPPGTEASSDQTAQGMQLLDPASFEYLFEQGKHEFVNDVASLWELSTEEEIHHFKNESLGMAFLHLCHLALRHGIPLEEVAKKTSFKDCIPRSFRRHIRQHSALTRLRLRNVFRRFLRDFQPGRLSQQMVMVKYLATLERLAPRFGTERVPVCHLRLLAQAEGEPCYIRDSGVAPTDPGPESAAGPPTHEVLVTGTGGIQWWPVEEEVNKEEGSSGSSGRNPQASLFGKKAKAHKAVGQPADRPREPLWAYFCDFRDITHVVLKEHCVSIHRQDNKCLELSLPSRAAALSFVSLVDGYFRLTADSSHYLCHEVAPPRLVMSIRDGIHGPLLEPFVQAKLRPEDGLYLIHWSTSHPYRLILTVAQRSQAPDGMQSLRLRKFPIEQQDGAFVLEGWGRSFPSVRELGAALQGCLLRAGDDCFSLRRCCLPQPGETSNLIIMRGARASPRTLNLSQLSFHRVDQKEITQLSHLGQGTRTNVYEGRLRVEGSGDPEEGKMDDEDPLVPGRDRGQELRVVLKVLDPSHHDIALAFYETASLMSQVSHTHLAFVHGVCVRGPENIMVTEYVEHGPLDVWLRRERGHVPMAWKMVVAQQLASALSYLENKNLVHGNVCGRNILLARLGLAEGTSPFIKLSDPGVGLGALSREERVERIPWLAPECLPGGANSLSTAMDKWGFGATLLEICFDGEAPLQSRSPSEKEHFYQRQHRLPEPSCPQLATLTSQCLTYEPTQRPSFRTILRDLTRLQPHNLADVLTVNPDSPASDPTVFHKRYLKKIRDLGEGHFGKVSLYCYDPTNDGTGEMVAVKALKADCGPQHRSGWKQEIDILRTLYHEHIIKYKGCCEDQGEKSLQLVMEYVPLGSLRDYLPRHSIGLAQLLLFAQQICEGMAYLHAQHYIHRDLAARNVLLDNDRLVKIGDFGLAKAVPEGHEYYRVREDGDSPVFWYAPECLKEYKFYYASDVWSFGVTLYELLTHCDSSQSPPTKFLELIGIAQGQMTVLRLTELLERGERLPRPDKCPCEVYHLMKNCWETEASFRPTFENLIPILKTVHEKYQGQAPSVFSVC
# Chain of CYP2D6 (P10635 whole entry): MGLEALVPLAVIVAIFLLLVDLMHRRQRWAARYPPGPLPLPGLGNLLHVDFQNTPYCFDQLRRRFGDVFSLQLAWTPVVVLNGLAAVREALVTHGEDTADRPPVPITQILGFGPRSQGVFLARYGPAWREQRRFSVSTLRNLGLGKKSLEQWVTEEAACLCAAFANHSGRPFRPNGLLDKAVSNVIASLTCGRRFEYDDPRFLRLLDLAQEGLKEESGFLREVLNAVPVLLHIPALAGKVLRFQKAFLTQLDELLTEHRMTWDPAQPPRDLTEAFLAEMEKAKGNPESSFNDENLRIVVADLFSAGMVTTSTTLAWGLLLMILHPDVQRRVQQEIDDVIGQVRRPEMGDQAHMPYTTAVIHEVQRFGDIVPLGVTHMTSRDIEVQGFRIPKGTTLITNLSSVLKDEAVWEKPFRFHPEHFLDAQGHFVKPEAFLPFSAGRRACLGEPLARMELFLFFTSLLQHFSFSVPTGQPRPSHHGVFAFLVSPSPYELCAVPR
# Chain of CYP2C9 (P11712 whole entry): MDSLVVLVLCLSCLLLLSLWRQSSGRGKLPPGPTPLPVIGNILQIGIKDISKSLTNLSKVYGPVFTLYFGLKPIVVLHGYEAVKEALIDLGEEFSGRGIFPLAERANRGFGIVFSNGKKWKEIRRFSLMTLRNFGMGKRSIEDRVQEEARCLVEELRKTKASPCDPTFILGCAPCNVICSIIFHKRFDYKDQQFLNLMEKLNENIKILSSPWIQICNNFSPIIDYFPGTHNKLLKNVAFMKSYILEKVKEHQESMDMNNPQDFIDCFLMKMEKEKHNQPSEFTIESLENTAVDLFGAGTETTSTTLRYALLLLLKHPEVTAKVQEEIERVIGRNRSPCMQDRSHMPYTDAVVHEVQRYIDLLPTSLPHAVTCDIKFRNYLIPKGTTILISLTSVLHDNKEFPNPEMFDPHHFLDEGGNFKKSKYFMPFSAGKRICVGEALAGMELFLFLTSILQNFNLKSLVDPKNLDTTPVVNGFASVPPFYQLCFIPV
# Chain of CYP2C19 (P33261 whole entry): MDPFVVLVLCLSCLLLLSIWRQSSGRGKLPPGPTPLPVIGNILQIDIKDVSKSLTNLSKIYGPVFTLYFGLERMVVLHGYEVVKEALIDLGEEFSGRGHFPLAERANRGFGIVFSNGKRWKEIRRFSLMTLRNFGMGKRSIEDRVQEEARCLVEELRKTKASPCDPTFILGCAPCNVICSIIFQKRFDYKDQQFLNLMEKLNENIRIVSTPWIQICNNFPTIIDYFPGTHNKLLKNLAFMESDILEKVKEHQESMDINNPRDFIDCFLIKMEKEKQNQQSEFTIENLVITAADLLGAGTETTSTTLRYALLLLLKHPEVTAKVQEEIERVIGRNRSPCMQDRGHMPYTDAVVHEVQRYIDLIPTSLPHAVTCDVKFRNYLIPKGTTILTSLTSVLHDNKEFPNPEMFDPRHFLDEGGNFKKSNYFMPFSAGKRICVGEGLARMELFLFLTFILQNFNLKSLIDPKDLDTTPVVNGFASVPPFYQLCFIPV
# Chain of Tyrosine-protein kinase JAK2 (O60674 whole entry): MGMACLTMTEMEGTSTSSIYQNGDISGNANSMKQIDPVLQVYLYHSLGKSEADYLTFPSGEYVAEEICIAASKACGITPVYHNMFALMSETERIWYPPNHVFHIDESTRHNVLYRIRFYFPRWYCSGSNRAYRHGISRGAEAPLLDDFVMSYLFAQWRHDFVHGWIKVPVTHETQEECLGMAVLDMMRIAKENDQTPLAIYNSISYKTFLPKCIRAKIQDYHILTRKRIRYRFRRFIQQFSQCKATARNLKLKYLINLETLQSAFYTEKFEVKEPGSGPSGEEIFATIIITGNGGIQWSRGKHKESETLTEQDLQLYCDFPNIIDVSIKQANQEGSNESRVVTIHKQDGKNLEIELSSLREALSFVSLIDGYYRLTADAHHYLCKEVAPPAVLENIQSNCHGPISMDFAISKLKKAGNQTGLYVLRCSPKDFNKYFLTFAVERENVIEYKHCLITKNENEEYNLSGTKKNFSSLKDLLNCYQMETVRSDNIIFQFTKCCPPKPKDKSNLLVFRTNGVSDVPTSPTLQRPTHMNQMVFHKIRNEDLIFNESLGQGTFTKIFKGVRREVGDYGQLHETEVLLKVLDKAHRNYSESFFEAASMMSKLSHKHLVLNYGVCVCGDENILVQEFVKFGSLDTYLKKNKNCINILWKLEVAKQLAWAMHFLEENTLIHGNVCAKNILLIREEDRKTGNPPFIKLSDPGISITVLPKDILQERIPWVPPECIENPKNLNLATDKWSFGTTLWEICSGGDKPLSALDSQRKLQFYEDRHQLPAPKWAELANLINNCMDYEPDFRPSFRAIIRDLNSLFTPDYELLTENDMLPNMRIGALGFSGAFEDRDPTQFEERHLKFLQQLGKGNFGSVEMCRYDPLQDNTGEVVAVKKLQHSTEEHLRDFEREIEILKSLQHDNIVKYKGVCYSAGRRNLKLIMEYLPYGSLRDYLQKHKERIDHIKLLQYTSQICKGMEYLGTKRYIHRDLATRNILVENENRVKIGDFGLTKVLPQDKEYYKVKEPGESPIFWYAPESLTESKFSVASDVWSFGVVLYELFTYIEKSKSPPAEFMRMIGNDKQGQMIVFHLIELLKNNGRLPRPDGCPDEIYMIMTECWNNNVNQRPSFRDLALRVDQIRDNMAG
compound,measurement,setting,value
[2H]C([2H])([2H])NC(=O)c1nnc(NC(=O)C2CC2)cc1Nc1cccc(C(=O)Nc2ccc(-c3ncn(C4CC4)n3)cc2)c1OC,Activity,[1],Non-Toxic
same,IC50,[2],4.8 nM
same,remaining at 1 h,[3],106%
same,remaining at 1 h,[4],93.3%
same,IC50,[5],2670 nM
same,IC50,JAK3/JAK1,972 nM
same,Tmax,[6],4 h
same,C0,[7],702 ng/mL
same,Cmax,[8],7100 ng/mL
same,Vd,[9],1.29 L/kg
same,AUC,[10],171069 ng·h/mL
same,AUC,[11],1694 ng·h/mL
same,clearance,[12],9.83 mL/min/kg
same,half-life,[13],14.7 h
same,half-life,[14],1.52 h
same,MRT last,[15],5.21 h
same,MRT last,[16],2.12 h
same,F,[17],118.87%
same,inhibition at 10 µM,hERG (KCNH2),27.8%
same,inhibition at 1 µM,CYP1A2,1.18%
same,inhibition at 1 µM,CYP2B6,16.9%
same,inhibition at 1 µM,CYP2C9,7%
same,inhibition at 1 µM,CYP2C19,-5.42%
same,inhibition at 1 µM,CYP2D6,-9%
same,inhibition at 1 µM,CYP3A4,5.25%
same,fraction unbound,[18],0.0022
